Values of other authors in patent US20080003300A1, “Compostions containing Mg/Zn/F-CaP plus inhibitors of pro-inflammatory Cytokines (a combination of a Free-B-Ring flavonoids and a flavan) for osteoporosis prevention, therapy and treatment of bone diseases” (priority 2006, published 2008).
pIC50: −log10 of the molar value.

Legend:
COX-2 = target: T1, COX-2 (Ovis aries, UniProt P79208); conditions: Noreen et al. (1998)
T1 sequence (P79208 17-603): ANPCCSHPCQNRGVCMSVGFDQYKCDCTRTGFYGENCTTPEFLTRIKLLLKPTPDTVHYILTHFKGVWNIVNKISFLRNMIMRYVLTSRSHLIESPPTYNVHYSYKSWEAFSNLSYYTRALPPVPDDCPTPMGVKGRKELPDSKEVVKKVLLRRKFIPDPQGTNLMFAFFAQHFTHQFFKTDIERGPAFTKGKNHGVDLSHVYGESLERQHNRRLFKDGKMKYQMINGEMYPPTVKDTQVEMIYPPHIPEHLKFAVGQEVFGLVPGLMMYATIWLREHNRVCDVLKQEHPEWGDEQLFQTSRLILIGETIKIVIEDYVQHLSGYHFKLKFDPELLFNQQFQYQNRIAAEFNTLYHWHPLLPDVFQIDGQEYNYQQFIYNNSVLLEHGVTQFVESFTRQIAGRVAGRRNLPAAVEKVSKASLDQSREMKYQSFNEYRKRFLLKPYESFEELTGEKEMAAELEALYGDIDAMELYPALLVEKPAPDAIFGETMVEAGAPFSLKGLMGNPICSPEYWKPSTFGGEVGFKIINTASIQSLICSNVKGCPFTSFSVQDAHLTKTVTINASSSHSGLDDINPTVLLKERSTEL

[1] = system: prostaglandin endoperoxide synthase; conditions: Kalkbrenner et al. (1992)
[2] = system: COX-2 gene transcription in human colon cancer DLD-1 cells; conditions: Mutoh et al. (2000)

SMILES: Oc1cc(O)c2c(c1)O[C@H](c1ccc(O)c(O)c1)[C@@H](O)C2 [(+)-catechin]
- selectivity for COX-2 (COX-2): no selectivity for COX-2

SMILES: Oc1cc(O)c2c(c1)OC(c1ccc(O)c(O)c1)C(O)C2 (stereo not drawn) [Catechin]
- pIC50 [1]: 4.40
- pIC50 [2]: 3.38
